Like-named read-outs stand apart in the source and are kept apart here. Each block holds one molecule with its values, some of them ahead of it.
Columns and labels:
[1] = test system: mouse ascites cells (strain SR, P-glycoprotein-mediated multi-chemoresistance); assay: Growth inhibition of multi-chemoresistant mouse ascites cells SR after drug incubation and laser exposure; assay type: cell-based; conditions: for IC50: read-out: 50% inhibitory concentration (cell growth); for 50% growth inhibition concentration in SR relative to wild-type (HD34K) concentration: absence of verapamil
Protocol: (§1) Chemosensitive mouse ascites cells (strain HD34K) were compared with their variant (strain SR) which distinuishes itself by P-glycoprotein-mediated multi-chemoresistance. The chemoresistance of the SR cells developed spontaneously. The mouse ascites cells were suspended in fresh cell culture medium before the experiment started.
(§2) All of the experiments were carried out under flavin-protecting test conditions (Granzow et al., Cancer Res. 55, 4837-4843, (1995)). Freshly prepared cell suspensions were previously incubated at 36.5° C. for 15 minutes. Then, the cells were incubated with graded concentrations of vinblastin and napavin (photoactivity-labeled cytostatic agent). […] The mouse ascites cells were incubated with these pharmacetuical agents for five minutes. The human tumor cells were incubated for ten minutes. Then, the cell suspensions were transferred by pipetting into plastic dishes or trays and exposed using an argon laser (457.8 nm, 48 mW/cm^2) at room temperature for 1 minute. Thereafter, the cells were washed with fresh cell culture medium twice and cultured in 24-well multidishes or multitrays for three days. At the end of the experiment, cell growth was measured and the 50% inhibitory concentration of the cytostatic agents vinblastin and napavin was determined graphically as usual.

[2] = test system: mouse ascites cells (strain HD34K); assay: Growth inhibition of chemosensitive mouse ascites cells HD34K after drug incubation and laser exposure; assay type: cell-based; conditions: HD34K (w.t.), 5 min incubation, argon laser 1 min, 3 days culture; for IC50: read-out: 50% inhibitory concentration (cell growth)
Protocol: as §1, §2

[3] = test system: KBC5-8 variant (P-glycoprotein-mediated multi-chemoresistance); assay: Growth inhibition of multi-chemoresistant KBC5-8 cells after drug incubation and laser exposure; assay type: cell-based, human; conditions: read-out: 50% inhibitory concentration (cell growth)
Protocol: (§3) In addition, chemosensitive KB cells (human carcinoma cells) were compared with their chemoresistant KBC5-8 variant. The multi-chemoresistance of the latter is also P-glycoprotein-mediated and was induced experimentally by colchicine addition to the cell culture medium. Before the experiment started, the human carcinoma cells were typsinized and suspended in fresh cell culture medium.
as §2, with “Then,” for “All of the experiments were carried out under flavin-protecting test conditions (Granzow et al., Cancer Res. 55, 4837-4843, (1995)). Freshly prepared cell suspensions were previously incubated at 36.5° C. for 15 minutes. Then,”

[4] = test system: KB cells (human carcinoma cells); assay: Growth inhibition of chemosensitive KB cells after drug incubation and laser exposure; assay type: cell-based; conditions: for IC50: KB (w.t.), 10 min incubation, 3 days culture, read-out: 50% inhibitory concentration (cell growth)
Protocol: as §3
as §2, with “Then,” for “All of the experiments were carried out under flavin-protecting test conditions (Granzow et al., Cancer Res. 55, 4837-4843, (1995)). Freshly prepared cell suspensions were previously incubated at 36.5° C. for 15 minutes. Then,”

[5] = no verapamil, argon laser 457.8 nm 1 min

- IC50 ([4]; Homo sapiens, KB, + 1 μM verapamil, argon laser 1 min): 180 nM
- IC50 ([4]; Homo sapiens, KB, no verapamil, argon laser 457.8 nm 1 min): 100 to 200 nM
- IC50 [4, 5]: 160 nM
Molecule: CC[C@]1(O)C[C@@H]2CN(CCc3c([nH]c4ccccc34)[C@@](C(=O)OC)(c3cc4c(cc3OC)N(C)[C@H]3[C@@](O)(C(=O)OC)[C@H](OC(C)=O)[C@]5(CC)C=CCN6CC[C@]43[C@@H]65)C2)C1 [VLB, vinblastin, reference compound]
- IC50 ([1]; Mus musculus): 7000 nM
- 50% growth inhibition concentration in SR relative to wild-type (HD34K) concentration [1]: about 10 times
- 50% inhibitory concentration (cell growth) ([2]; + 1 μM verapamil): insignificantly higher
- IC50 ([2]; Mus musculus, + 1 μM verapamil): 750 nM
- IC50 ([2]; Mus musculus, no verapamil): 660 nM
- IC50 ([3]; Homo sapiens): 27000 nM

- IC50 ([4]; + 1 μM verapamil, argon laser 1 min): 150 nM
- IC50 [4, 5]: 160 nM
Molecule: napavin
- IC50 ([1]; SR (mdr), + 1 μM verapamil, 5 min incubation, argon laser 1 min, 3 days culture): 900 nM
- IC50 ([1]; SR (mdr), + 2 μM verapamil, 5 min incubation, argon laser 1 min, 3 days culture): 600 nM
- IC50 ([1]; SR (mdr), no verapamil, 5 min incubation, argon laser 1 min, 3 days culture): 4750 nM
- 50% growth inhibition concentration in SR relative to wild-type (HD34K) concentration [1]: 10 times
- Inhibitory concentrations SR versus wild-type HD34K ([1]; with 1 μM verapamil): no longer differ significantly
- Inhibitory concentrations SR versus wild-type HD34K ([1]; with 2 μM verapamil): identical
- 50% inhibitory concentration (cell growth) ([2]; + 1 μM verapamil): slightly less
- IC50 ([2]; + 1 μM verapamil): 330 nM
- IC50 ([2]; no verapamil, listed as napavin): ~400 nM
- IC50 ([2]; no verapamil): 430 nM
- IC50 ([3]; KBC5-8 (mdr), + 1 μM verapamil, 10 min incubation, argon laser 1 min, 3 days culture): 1000 nM
- IC50 ([3]; KBC5-8 (mdr), + 2 μM verapamil, 10 min incubation, argon laser 1 min, 3 days culture): 350 nM
- IC50 ([3]; KBC5-8 (mdr), no verapamil, 10 min incubation, argon laser 1 min, 3 days culture): 3800 nM

Molecule: COc1ccc(CCN(C)CCCC(C#N)(c2ccc(OC)c(OC)c2)C(C)C)cc1OC (stereo not shown) [VPM, verapamil]
- Influence of verapamil on concentration required for 50% growth suppression ([4]; KB cells, vinblastin and napavin): no influence

Source: patent US6376224B1, “Pharmaceutical compositions for eliminating membrane-mediated cell resistance” (Deutsches Krebsforschungszentrum Stiftung des Offentlichen …, priority 1997, dated 2002)
